Key:
mice = assay: Acute toxicity after oral administration of a single dose; type: in vivo; conditions: observation period 14 days; for animals died (mortality): single dose 500 mg/kg; for Approximate acute toxicity: single dose, groups of 10
Experimental: The acute toxicity of the substances being tested was determined approximately in groups of 10 mice after oral administration of a single dose (observation period 14 days): […]

[1] = test system: platelet-rich plasma of healthy test subjects; assay: Antithrombotic activity: collagen-induced thrombocyte aggregation (BORN and CROSS method); type: cell-based; conditions: Homo sapiens, 10 min, plasma incubated for 10 minutes with the substance at 37° C., read-out: EC50 (50% change in the "optical density" in terms of an inhibition of aggregation)
Experimental: Thrombocyte aggregation is measured using the BORN and CROSS method (J. Physiol. 170, 397 (1964)) in the platelet-rich plasma of healthy test subjects. To inhibit coagulation, 3.14% sodium citrate is added to the blood in a ratio by volume of 1:10.
The pattern of the decrease in optical density of the platelet suspension is photometrically measured and recorded after the addition of aggregation-inducing substance. The rate of aggregation is determined from the angle of inclination of the density curve. The point on the curve at which there is maximum transmittance is used to calculate the "optical density".
The quantity of collagen is kept as small as possible but sufficient to produce an irreversible reaction curve. The standard commercial collagen produced by Hormonchemie of Munich is used. Before the addition of collagen, the plasma is incubated for 10 minutes with the substance at 37° C.
From the measurements obtained, an EC50 is determined graphically, showing a 50% change in the "optical density" in terms of an inhibition of aggregation.

Row | SMILES | animals died (mortality) (mice) | Approximate acute toxicity (mice) [mg/kg] | EC50 [1] [nM]
1 | Cn1c(CCNS(=O)(=O)c2ccc(F)cc2)ccc1C(=O)CCC(=O)O [Substance D, 4-[2-(2-(p-Fluorobenzenesulphonylamino)-ethyl)-1-methylpyrrol-5-yl]-4-oxybutyric acid] | 0 out of 10 animals | 500 | 360
2 | Cn1c(CCNS(=O)(=O)c2ccc(Cl)cc2)ccc1C(=O)CCC(=O)O [Substance B, 4-[2-(2-(p-chlorobenzenesulphonylamino)-ethyl)-1-methylpyrrol-5-yl]-4-oxybutyric acid] | 0 out of 10 animals | 500 | 400
3 | Cn1c(CCNS(=O)(=O)c2cccs2)ccc1C(=O)CCC(=O)O [Substance C, 4-[2-(2-thiophen-2-yl-sulphonylamino-ethyl)-1-methylpyrrol-5-yl]-4-oxybutyric acid] | 0 out of 10 animals | 500 | 390
4 | Cn1c(CCNS(=O)(=O)c2ccccc2)ccc1C(=O)CCC(=O)O [Substance A, 4-[2-(2-Benzenesulphonylamino-ethyl)-1-methylpyrrol-5-yl]-4-oxybutyric acid] | 0 out of 10 animals | 500 | 3500
5 | Cn1c(CCNS(=O)(=O)c2ccccc2)ccc1C1=NNC(=O)CC1 [Substance E, 6-[2-(2-Benzenesulphonylamino-ethyl)-1-methylpyrrol-5-yl]-4,5-dihydro-3(2H)-pyridazinone] | 0 out of 10 animals | 500 | 2900
